How the values were obtained:
hAChE = hAChE (Homo sapiens, UniProt P22303); experiment: Ellman's colorimetric assay, inhibition of hAChE; assay type: biochemical
Description: (§1) For evaluation of enzyme inhibition, Ellman's colorimetric assay was conducted as described in Ellman, G. L., Arch. Biochem. Biophys 1958, 74, 443-450 and Ellman, G. L. et al., Biochem. Pharmacol. 1961, 7, 88-95. Therefor, 5,5'-dithiobis-(2-nitrobenzoic acid) (DTNB) solution, respective Cholinesterase (ChE) and inhibitor were incubated together and enzyme activity was measured after 20 min. The long incubation time was needed to allow the carbamate transfer between ChE and inhibitor.
(§2) The carbamate residue was altered systematically by changing residues in the terminal position of carbamate moiety and different flexible alkylene linkers were introduced. […] Nevertheless, it must be noted that IC50 values only serve as a first indicator of inhibitor affinity and selectivity. Due to the chemical reaction of carbamate transfer the enzyme inhibition is strongly time dependent. […]

hBChE [1] = target: T1, hBChE (Homo sapiens, UniProt P06276); experiment: Decarbamoylation from hBChE, dilution experiments (recovery of enzyme activity, k4); assay type: biochemical; details: decarbamoylation rate, after 1 h incubation and 1:1000 dilution
Description: To further investigate the presence and nature of a peripheral binding site, also the hydrolysis of carbamate and the resulting release of the inhibitor from the enzyme was investigated by measuring the time dependent recovery of enzyme activity. To measure the decarbamoylation rate k4, dilution experiments were performed with hBChE following the procedure described in Sawatzky, E. et al., ChemMedChem 2016, 11, 1540-1550 and in Bartolucci, C. et al., Biochem. J. 2012, 444, 269-277. A high concentration of enzyme and inhibitor where incubated for 1 h. The concentration of inhibitor was chosen, such that > 85% of hBChE was inhibited through carbamate transfer. Then the mixture was diluted with buffer 1:1000 to a concentration at which the enzyme is not further carbamoylated. Due to the hydrolysis and release of the carbamate from the catalytic active serine enzyme activity was recovered slowly. This regeneration of the enzyme was monitored at different time points after the dilution. […] A = (1−e^(k4 ⋅t))⋅(1−A0) + A0 [formula] Table 4. Kinetic values for decarbamoylation from hBChE of selected compounds

[2] = test system: Aβ25-35-induced passive avoidance impairments; experiment: Step-through passive avoidance test, Aβ25-35-injected mice; assay type: in vivo, male Swiss mice; details: 0.3-3 mg/kg ip o.d. day 1 to 7; retention day 10
hBChE [3] = target: T1, hBChE; experiment: biochemical; assay type: biochemical; details: for plC50 ± SEM (hBChE) / IC50: enzyme activity measured after 20 min incubation; for IC50: read-out: IC50 hBChE; for Selectivity index (IC50 hAChE/IC50 hBChE): hAChE over hBChE
Description: as §1, §2

[4] = test system: Aβ25-35-induced spontaneous alternation deficits; experiment: Spontaneous alternation test in the Y-maze, Aβ25-35-injected mice; assay type: in vivo, male Swiss mice; details: for prevention of the effects of Aβ injection, both behavioral parameters: dose of 1 or 3 mg/kg ip, Y-maze and passive avoidance; for dose active on Aβ25-35-induced spontaneous alternation deficits: ip o.d. day 1 to 7, Y-maze day 8
Description: 2013, 38, pages 1706-1723.
AD-like cognitive dysfunctions were induced in male Swiss mice, 6 weeks old, weighing 31-36 g by intracerebroventricular (icv) injection of the oligomerized Aβ25-35 peptide into the mouse brain on day 1.
Compounds were weighed, dissolved in pure DMSO at a concentration of 1 mg/ml and diluted into final test concentrations with saline. The final percentage of DMSO in saline was 60% for all compounds. Vehicle solution used for control groups was 60% DMSO in saline. Compounds were injected intraperitoneally (ip) from day 1 to 7 and behavioral studies were conducted between day 8 and 10. Spatial working memory was evaluated using a spontaneous alternation test in a Y-maze on day 8. The Y-maze is made of grey polyvinylchloride. Each arm is 40 cm long, 13 cm high, 3 cm wide at the bottom, 10 cm wide at the top, and converging at an equal angle. Each mouse is placed at the end of one arm and allowed to explore the maze freely for 8 min. The sequence of arm entries (including possible returns into the same arm) was checked visually and noted down. If the mouse enters all three arms on consecutive occasion, this is defined as an alternation. Therefore, the total number of arm entries minus two is also the maximum number of alternations. The percentage of alternation was calculated as (actual alternations / maximum alternations) x 100. Parameters for the evaluation of behavior are given as the percentage of alternation (memory index) and a total number of arm entries (exploration index).
Figs. 7a-h show the effect of the compounds on Aβ25-35-induced spontaneous alternation deficits in mice. […] Figs. 7a, c, e, g: spontaneous alternation performance; Figs. 7b, d, f, h: number of arm entries in the Y-maze test performed at day 8.

hBChE [5] = target: T1, hBChE; experiment: Carbamoylation kinetics on hBChE (time-dependent inhibition, Kc and k3); assay type: biochemical; details: for k3 [min^-1] hBChE: carbamoylation rate constant; for Kd: carbamoylation, pre-equilibrium constant
Source text: As carbamate based inhibitors (C-X) show a pseudo irreversible manner of binding, the IC50 values must be seen critically because two chemical reactions determine them: Carbamate (C) transfer onto the enzyme (E) and carbamate hydrolysis. So, the Kc values, k3 and k4 rate constants according to below formula were investigated for some representative compounds (c.f. Fig. 3 and Fig. 4). [formula]
The mechanism of enzyme inhibition can be divided into three steps: In a pre-equilibrium, the carbamate based inhibitor C-X is bound to the enzyme E and a complex (EC-X) is formed reversible and can be characterized with Kc. Then the carbamate C is transferred onto the enzyme E and binds covalently to form E-C with the rate constant k3 while carrier scaffold X is released. Then E-C is hydrolyzed and enzyme activity is recovered and the amine C' is released with the rate constant k4, also called decarbamoylation rate.
For the determination of Kc and k3 a similar experimental setup was used compared to the evaluation of IC50 values, whereas enzyme activity was measured at various time points after addition of inhibitor.
A = A0 ⋅e^(−kobs ⋅t) + A∞ [formula]
Plotting the enzyme activity (in %) against the incubation times, lead to nonlinear time-dependent inhibition curves for the respective inhibitor concentrations whereby kobs can be determined with an exponential fit correspondent to equation (I).
Furthermore, a hyperbolic curve is obtained, plotting the rate constant kobs against the inhibitor concentration [I], which is described by equation (II), with the substrate concentration [S] and the Michaelis-Menten constant KM. kobs = (k3 ⋅[I])/(KC ⋅(1+([S])/(KM)) + [I]) [formula]
This equation (II) can be rearranged to the reciprocal of kobs, to get a linear plot: (1)/(kobs) = (KC ⋅(1+([S])/(KM)))/(k3)⋅(1)/([I]) + (1)/(k3) [formula]
Since the substrate butyrylthiocholine iodide is not added directly to the enzyme and the inhibitor, but after the incubation of enzyme with inhibitor, [S] can be set to zero, leading to Michaelis-Menten like equation IV. (1)/(kobs) = (KC)/(k3)⋅(1)/([I]) + (1)/(k3) [formula]
Relating to the linear equation (IV), KC can be established from the slope and carbamoylation rate constant k3 from the y-intercept.
As a chemical reaction is taking place, Kc must be seen as a 'real' measure for quantification of enzyme inhibitor interactions. Due to the high costs in measurements on hBChE only some representative compounds were chosen to evaluate also in kinetic studies based on the results from IC50 measurements (table 3). Table 3. Kinetic values for carbamoylation on hBChE for selected representative compounds

T1 sequence (P06276 29-602): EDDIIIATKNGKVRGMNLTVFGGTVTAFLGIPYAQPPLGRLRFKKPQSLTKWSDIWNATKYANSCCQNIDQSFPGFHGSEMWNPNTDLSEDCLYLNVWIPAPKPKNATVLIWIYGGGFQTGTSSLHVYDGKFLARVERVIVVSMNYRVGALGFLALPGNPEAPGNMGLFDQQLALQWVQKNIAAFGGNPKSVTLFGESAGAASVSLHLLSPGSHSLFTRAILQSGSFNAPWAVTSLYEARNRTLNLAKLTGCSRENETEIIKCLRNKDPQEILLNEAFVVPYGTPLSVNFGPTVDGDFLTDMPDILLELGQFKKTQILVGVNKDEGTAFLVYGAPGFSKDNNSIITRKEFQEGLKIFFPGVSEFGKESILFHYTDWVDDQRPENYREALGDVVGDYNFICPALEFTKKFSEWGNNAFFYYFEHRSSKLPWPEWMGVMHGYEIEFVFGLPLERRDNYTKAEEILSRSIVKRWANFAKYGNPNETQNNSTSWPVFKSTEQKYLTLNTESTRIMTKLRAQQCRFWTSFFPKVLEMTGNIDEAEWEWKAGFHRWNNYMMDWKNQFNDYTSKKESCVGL
Sequence of hAChE (P22303 32-614): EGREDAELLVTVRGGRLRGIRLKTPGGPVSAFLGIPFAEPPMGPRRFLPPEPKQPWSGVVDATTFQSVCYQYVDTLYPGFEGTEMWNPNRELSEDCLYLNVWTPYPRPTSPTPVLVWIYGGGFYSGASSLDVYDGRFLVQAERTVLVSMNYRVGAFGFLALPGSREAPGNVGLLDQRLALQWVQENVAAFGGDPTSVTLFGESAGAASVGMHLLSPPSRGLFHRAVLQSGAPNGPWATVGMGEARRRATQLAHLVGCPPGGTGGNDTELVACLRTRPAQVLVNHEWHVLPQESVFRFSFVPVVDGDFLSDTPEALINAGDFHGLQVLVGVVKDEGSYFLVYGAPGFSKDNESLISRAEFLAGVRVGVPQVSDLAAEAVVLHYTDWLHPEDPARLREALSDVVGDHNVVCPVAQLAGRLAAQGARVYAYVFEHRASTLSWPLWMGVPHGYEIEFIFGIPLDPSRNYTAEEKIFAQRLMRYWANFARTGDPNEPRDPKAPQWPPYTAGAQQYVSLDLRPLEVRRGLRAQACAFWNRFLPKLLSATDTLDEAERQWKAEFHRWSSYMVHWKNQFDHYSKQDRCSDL

| Compound | inhibition at 100 µM (hAChE; 100 µM, read-out: inhibition of hAChE) | k4 (hBChE [1]) | effect on Aβ25-35-induced passive avoidance deficits (step-through latency, retention) [2] | fold lower activity than heptyl carbamate 7 (IC50 hBChE) (hBChE [3]; compared with compound 7) | plC50 ± SEM (hBChE) (hBChE [3]) | IC50 (hBChE [3]) | Selectivity index (IC50 hAChE/IC50 hBChE) (hBChE [3]) | prevention of the effects of Aβ injection, both behavioral parameters [4] | dose active on Aβ25-35-induced spontaneous alternation deficits [4] | k3 [min^-1] hBChE (hBChE [5]) | Kd (hBChE [5]) | inhibition at 10 µM (hAChE; 10 µM) | Kc values (hBChE), in words (hBChE [5]) |
| --- | --- | --- | --- | --- | --- | --- | --- | --- | --- | --- | --- | --- | --- |
| CN1c2ccc(OC(=O)NCCCCCCN3CCOCC3)cc2CN2CCc3ccccc3C21 (stereo not shown) [Compound 19d] | 45% | 0.042 ± 0.004 h⁻¹ | effective at the 3 doses tested | approximately 10 fold | 7.31 ± 0.02 | 49.3 nM | >1000 | fully prevented the effects of Aβ injection | 0.3 mg/kg ip | 0.16 ± 0.02 min⁻¹ | 202 ± 55 nM |  |  |
| CN1c2ccc(OC(=O)NCCCCCCN3CCc4ccccc4C3)cc2CN2CCc3ccccc3C21 (stereo not shown) [Compound 19j] |  | 0.025 ± 0.001 h⁻¹ | effective at the 3 doses tested |  | 7.57 ± 0.05 | 26.7 nM | >1000 | fully prevented the effects of Aβ injection | 1 mg/kg ip | 0.18 ± 0.02 min⁻¹ | 3.6 ± 2.9 nM | 9% | one-digit nanomolar range |
